Data taken from ChEMBL document CHEMBL5375983, “Discovery of YSR734: A Covalent HDAC Inhibitor with Cellular Activity in Acute Myeloid Leukemia and Duchenne Muscular Dystrophy” (J Med Chem, 2023).
The source made the active and inactive calls. The calls are words filed in the database; no cut-off is given here.

Experiments:
Histone deacetylase 3 [1] = target: T1, Histone deacetylase 3 (Homo sapiens, UniProt O15379); experiment: Inhibition of full length recombinant human HDAC3 expressed in Sf9 cells using 6-carboxyfluorescein peptide as substrate preincubated with compound for 6 hrs followed by substrate addition and measured after 3 hrs by electrophoretic mobility shift assay; assay type: cell-based
T1 sequence (O15379 whole entry): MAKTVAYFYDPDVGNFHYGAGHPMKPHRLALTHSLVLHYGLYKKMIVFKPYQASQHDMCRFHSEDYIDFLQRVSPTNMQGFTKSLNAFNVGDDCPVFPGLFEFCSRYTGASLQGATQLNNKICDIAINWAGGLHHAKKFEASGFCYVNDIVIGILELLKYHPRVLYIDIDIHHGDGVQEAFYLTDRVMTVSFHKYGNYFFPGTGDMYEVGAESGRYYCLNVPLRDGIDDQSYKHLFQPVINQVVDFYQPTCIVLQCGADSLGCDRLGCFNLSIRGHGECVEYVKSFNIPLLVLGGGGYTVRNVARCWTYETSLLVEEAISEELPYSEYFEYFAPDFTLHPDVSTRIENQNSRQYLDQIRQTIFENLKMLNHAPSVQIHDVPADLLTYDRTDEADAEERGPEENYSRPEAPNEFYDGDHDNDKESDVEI

[2] = Tmax in CD-1 mouse at 10 mg/kg, ip measured upto 12 hrs by LC-MS/MS analysis; assay type: ADME, organism-based; details: in vivo
Histone deacetylase 1 [3] = target: T2, Histone deacetylase 1 (Homo sapiens, UniProt Q13547); experiment: Inhibition of HDAC1 (unknown origin) using 6-carboxyfluorescein peptide as substrate preincubated with compound for 6 hrs followed by substrate addition by electrophoretic mobility shift assay
T2 sequence (Q13547 whole entry): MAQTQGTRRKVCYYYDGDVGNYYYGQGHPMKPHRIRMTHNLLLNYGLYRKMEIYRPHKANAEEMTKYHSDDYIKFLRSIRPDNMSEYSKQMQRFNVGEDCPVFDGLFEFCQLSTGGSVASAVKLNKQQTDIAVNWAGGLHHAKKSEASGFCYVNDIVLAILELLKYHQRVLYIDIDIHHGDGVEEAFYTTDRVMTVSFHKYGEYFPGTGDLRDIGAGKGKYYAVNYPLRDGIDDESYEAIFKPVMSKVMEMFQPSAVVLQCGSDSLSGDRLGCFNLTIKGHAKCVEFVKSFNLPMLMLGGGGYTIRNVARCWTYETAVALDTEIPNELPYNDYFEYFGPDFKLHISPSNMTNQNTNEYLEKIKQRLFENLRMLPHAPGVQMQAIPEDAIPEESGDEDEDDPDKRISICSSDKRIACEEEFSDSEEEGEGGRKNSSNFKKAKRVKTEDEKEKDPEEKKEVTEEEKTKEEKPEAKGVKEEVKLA

[4] = Glutathione reactivity assessed as compound consumption at 500 nM incubated for 16 hrs by LC-MS/MS analysis; assay type: ADME; details: glutathione solution, read-out: Drug metabolism
[5] = Cytotoxicity against human MRC9 cells assessed as inhibition of cell growth incubated for 72 hrs by celltiter-blue viability assay; assay type: toxicity, cell-based
Histone deacetylase 8 = target: T3, Histone deacetylase 8 (Homo sapiens, UniProt Q9BY41); experiment: Inhibition of full length recombinant human HDAC8 expressed in Sf9 cells using 6-carboxyfluorescein peptide as substrate preincubated with compound followed by substrate addition and measured after 3 hrs by electrophoretic mobility shift assay
T3 sequence (Q9BY41 whole entry): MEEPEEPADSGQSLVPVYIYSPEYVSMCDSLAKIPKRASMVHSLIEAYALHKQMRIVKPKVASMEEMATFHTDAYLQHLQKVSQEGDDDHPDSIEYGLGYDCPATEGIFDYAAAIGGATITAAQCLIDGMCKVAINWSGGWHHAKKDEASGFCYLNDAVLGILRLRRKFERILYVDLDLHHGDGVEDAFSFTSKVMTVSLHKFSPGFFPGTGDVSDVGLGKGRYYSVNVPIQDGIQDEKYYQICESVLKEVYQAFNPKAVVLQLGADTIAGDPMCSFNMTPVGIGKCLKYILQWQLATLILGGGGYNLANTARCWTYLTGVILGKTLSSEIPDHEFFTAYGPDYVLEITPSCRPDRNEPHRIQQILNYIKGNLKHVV

MV4-11 [6] = experiment: Cytotoxicity against human MV4-11 cells assessed as inhibition of cell growth incubated for 72 hrs by celltiter-blue viability assay; assay type: functional, cell-based; details: MV4-11, 72 h
[7] = Half life in CD-1 mouse at 10 mg/kg, ip measured upto 12 hrs by LC-MS/MS analysis; assay type: ADME, organism-based; details: in vivo
[8] = AUCinfinity in CD-1 mouse at 10 mg/kg, ip measured upto 12 hrs by LC-MS/MS analysis; assay type: ADME, organism-based; design: time < 12 hrs, dose 10 mg/kg, route ip; details: in vivo
[9] = Cmax in CD-1 mouse at 10 mg/kg, ip measured upto 12 hrs by LC-MS/MS analysis; assay type: ADME, organism-based; design: time < 12 hrs, dose 10 mg/kg, route ip; details: in vivo
Histone deacetylase 2 [10] = target: T4, Histone deacetylase 2 (Homo sapiens, UniProt Q92769); experiment: Inhibition of HDAC2 (unknown origin) using 6-carboxyfluorescein peptide as substrate preincubated with compound for 6 hrs followed by substrate addition by electrophoretic mobility shift assay
T4 sequence (Q92769 whole entry): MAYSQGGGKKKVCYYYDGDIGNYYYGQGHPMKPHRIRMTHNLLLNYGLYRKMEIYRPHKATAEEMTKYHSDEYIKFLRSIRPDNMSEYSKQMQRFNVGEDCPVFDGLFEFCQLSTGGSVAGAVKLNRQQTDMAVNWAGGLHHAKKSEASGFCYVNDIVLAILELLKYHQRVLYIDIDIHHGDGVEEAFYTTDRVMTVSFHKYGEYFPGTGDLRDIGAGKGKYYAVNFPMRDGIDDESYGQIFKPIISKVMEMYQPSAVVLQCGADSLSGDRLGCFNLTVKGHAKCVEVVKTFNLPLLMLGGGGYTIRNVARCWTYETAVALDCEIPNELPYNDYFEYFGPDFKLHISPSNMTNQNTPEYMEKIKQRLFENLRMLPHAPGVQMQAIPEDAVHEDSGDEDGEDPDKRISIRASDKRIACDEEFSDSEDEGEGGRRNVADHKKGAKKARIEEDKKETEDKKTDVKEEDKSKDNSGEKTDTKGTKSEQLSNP

Histone deacetylase 3 [11] = target: T1, Histone deacetylase 3; experiment: Inhibition of full length recombinant human HDAC3 expressed in Sf9 cells using 6-carboxyfluorescein peptide as substrate preincubated with compound for 2 hrs followed by substrate addition and measured after 3 hrs by electrophoretic mobility shift assay; assay type: cell-based
RS4-11 = experiment: Cytotoxicity against human RS4-11 cells assessed as inhibition of cell growth incubated for 72 hrs by celltiter-blue viability assay; assay type: functional, cell-based; details: RS4-11, 72 h
Histone deacetylase 3 [12] = target: T1, Histone deacetylase 3; experiment: Inhibition of full length recombinant human HDAC3 expressed in Sf9 cells using 6-carboxyfluorescein peptide as substrate preincubated with compound followed by substrate addition and measured after 3 hrs by electrophoretic mobility shift assay; assay type: cell-based
Histone deacetylase 1 [13] = target: T2, Histone deacetylase 1; experiment: Inhibition of HDAC1 (unknown origin) using 6-carboxyfluorescein peptide as substrate preincubated with compound followed by substrate addition by electrophoretic mobility shift assay
Histone deacetylase 2 [14] = target: T4, Histone deacetylase 2; experiment: Inhibition of HDAC2 (unknown origin) using 6-carboxyfluorescein peptide as substrate preincubated with compound for 2 hrs followed by substrate addition by electrophoretic mobility shift assay
Histone deacetylase 2 [15] = target: T4, Histone deacetylase 2; experiment: Inhibition of HDAC2 (unknown origin) using 6-carboxyfluorescein peptide as substrate preincubated with compound followed by substrate addition by electrophoretic mobility shift assay
[16] = Selectivity index, ratio of IC50 for cytotoxicity against human MRC9 cells to IC50 for cytotoxicity against human MV4-11 cells
MV4-11 [17] = experiment: Induction of apoptosis in human MV4-11 cells assessed as healthy cells at 4 uM measured after 6 hrs by annexin V-FITC/PI staining based FACS assay (reference value: 63.50%); assay type: functional
Histone deacetylase 11 = target: T5, Histone deacetylase 11 (Homo sapiens, UniProt Q96DB2); experiment: Inhibition of full length recombinant human HDAC11 expressed in Sf9 cells using 6-carboxyfluorescein peptide as substrate preincubated with compound for 6 hrs followed by substrate addition and measured after 17 hrs by electrophoretic mobility shift assay
T5 sequence (Q96DB2 whole entry): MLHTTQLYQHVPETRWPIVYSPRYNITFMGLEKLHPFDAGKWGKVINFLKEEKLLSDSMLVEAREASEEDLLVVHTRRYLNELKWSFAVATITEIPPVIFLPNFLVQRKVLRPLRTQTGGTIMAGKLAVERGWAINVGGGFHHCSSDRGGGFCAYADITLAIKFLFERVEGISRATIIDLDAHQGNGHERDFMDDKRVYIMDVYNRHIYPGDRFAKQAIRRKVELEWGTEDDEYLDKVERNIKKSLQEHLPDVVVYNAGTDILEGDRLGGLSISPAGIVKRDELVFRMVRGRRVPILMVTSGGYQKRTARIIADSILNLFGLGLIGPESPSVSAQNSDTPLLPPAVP

[18] = Stability in human whole blood assessed as half life at 100 uM measured upto 40 mins by LC-MS/MS analysis; assay type: ADME, tissue-based
MV4-11 [19] = experiment: Induction of apoptosis in human MV4-11 cells assessed as healthy cells at 1 uM measured after 6 hrs by annexin V-FITC/PI staining based FACS assay (reference value: 63.50%); assay type: functional
MV4-11 [20] = experiment: Induction of apoptosis in human MV4-11 cells assessed as late apoptotic cells at 4 uM measured after 6 hrs by annexin V-FITC/PI staining based FACS assay (reference value: 16.21%); assay type: functional
[21] = MRT in CD-1 mouse at 10 mg/kg, ip measured upto 12 hrs by LC-MS/MS analysis; assay type: ADME, organism-based; details: in vivo
MV4-11 [22] = experiment: Induction of apoptosis in human MV4-11 cells assessed as late apoptotic cells at 1 uM measured after 6 hrs by annexin V-FITC/PI staining based FACS assay (reference value: 16.21%); assay type: functional
[23] = Glutathione reactivity assessed as compound consumption at 500 nM measured after 1 to 3 hrs by LC-MS/MS analysis; assay type: ADME; details: glutathione solution, time 1-3 hrs, read-out: Activity
Histone deacetylase 2 [24] = target: T4, Histone deacetylase 2; experiment: Binding affinity to recombinant full length HDAC2 catalytic domain Cys274 (unknown origin) assessed as formation of single covalent adduct at 50 uM incubated for 2 hrs by trypsin-digest protein mapping analysis
[25] = target: Histone deacetylase 1/2/3 (Homo sapiens) (UniProt Q13547+O15379+Q92769); experiment: […] binding affinity to HDAC1/2/3 in human MV4-11 cells assessed as increase in Ac-histone-H3 level at […] incubated for 6 hrs followed by compound washout and measured after 16 hrs by Western blot analysis; assay type: cell-based; details: dose 2.5 µM

Structure (SMILES)	IC50 at 72 h [5] [nM]	IC50 (MV4-11 [6]) [nM]	IC50 (Histone deacetylase 2 [10]) [nM]	IC50 (RS4-11) [nM]	IC50 (Histone deacetylase 1 [13]) [nM]	IC50 (Histone deacetylase 2 [14]) [nM]	IC50 (Histone deacetylase 2 [15]) [nM]	Ratio IC50 [16]	other results
Nc1ccccc1NC(=O)c1ccc(CNC(=O)OC2CCCCC2)cc1	10900	1070	274	620	903	490	> 1000	10	IC50 (Histone deacetylase 3 [1]): 36 nM; Tmax [2]: 4.8 min; IC50 (Histone deacetylase 1 [3]): 64 nM; degraded at 16 h, 0.5 µM [4]: < 10%; IC50 (Histone deacetylase 8): > 10000 nM; half-life [7]: 311 min; AUC(0-inf) [8]: 1810 ng·h/mL; Cmax [9]: 2700 ng/mL; IC50 (Histone deacetylase 3 [11]): 73 nM; IC50 (Histone deacetylase 3 [12]): 273 nM
Nc1ccccc1NC(=O)c1ccc(CNC(=O)OCc2cccnc2)cc1 [ENTINOSTAT]	10200	710		300					Tmax [2]: 15 min; Activity (MV4-11 [17]): 40.57%; IC50 (Histone deacetylase 11): > 1000 nM; degraded at 16 h, 0.5 µM [4]: < 10%; half-life [7]: 191 min; AUC(0-inf) [8]: 5260 ng·h/mL; half-life at 100 µM [18]: 45 min; Activity (MV4-11 [19]): 53.43%; Cmax [9]: 6250 ng/mL; Activity (MV4-11 [20]): 30.45%; MRT [21]: 57.6 min; Activity (MV4-11 [22]): 23.15%
Nc1ccccc1NC(=O)c1ccc(CNC(=O)OC2CCN(C(=O)CCl)CC2)cc1			720		> 1000	> 1000	> 1000		degraded at 0.5 µM [23]: > 50%
C=CS(=O)(=O)N1CCC(OC(=O)NCc2ccc(C(=O)Nc3ccccc3N)cc2)CC1			380		445	919	> 1000		Activity (Histone deacetylase 2 [24]): Active; degraded at 0.5 µM [23]: > 50%
C#CC(=O)N1CCC(OC(=O)NCc2ccc(C(=O)Nc3ccccc3N)cc2)CC1			328		665	759	> 1000		degraded at 0.5 µM [23]: > 50%
CN(C)C/C=C/C(=O)N1CCC(OC(=O)NCc2ccc(C(=O)Nc3ccccc3N)cc2)CC1	31200	1800	180	1240	200	295	808	17	
C=C=CC(=O)N1CCC(OC(=O)NCc2ccc(C(=O)Nc3ccccc3N)cc2)CC1			393		685	823	> 1000		
Nc1ccccc1NC(=O)c1ccc(CNC(=O)OC2CCN(S(=O)(=O)CCl)CC2)cc1	15900	1380	200	720	369	517	> 1000	12	
Nc1ccccc1NC(=O)c1ccc(CNC(=O)OC2CCN(S(=O)(=O)c3c(F)c(F)cc(F)c3F)CC2)cc1									Activity [25]: Active
C=CC(=O)N1CCC(OC(=O)NCc2ccc(C(=O)Nc3ccccc3N)cc2)CC1	21600	2320	379	1530	592	861	> 1000	9	
C=CC(=O)N1CCC[C@@H](n2nc(-c3ccc(Oc4ccccc4)cc3)c3c(N)ncnc32)C1 [IBRUTINIB]									half-life at 100 µM [18]: 64 min
